{"source": "patent US20240415808A1", "about": "“Dosage Regimen for Fexuprazan Injection Composition” (Daewoong Pharmaceutical Co., Ltd., priority 2021, published 2024)", "key": {"[1]": {"assay": "oral vs intravenous two-way crossover clinical trial, pharmacokinetics / bioavailability", "format": "in vivo", "settings": "human, blood, healthy adults; for Cmax: n 8", "description": "Therefore, in order to compare the safety/PK/PD of the compound of the present invention during single intravenous administration and during single oral administration and derive the bioavailability, the clinical trial was designed as a randomized, open-label, single-dose, two-period, two-way crossover trial in healthy adults. The selection/exclusion criteria were the same as in Experimental Example 4. A total of 8 subjects were enrolled, and four subjects each were randomly assigned to sequence group 1 or sequence group 2 in the order in which they passed the screening criteria. All test subjects completed safety, pharmacokinetic, and pharmacodynamic evaluations according to the planned clinical trial schedule.\nA screening visit was performed 3 to 28 days before the start of the clinical trial, and hospital admission was performed 2 days before medication. The first phase medication was performed according to the order group randomly assigned on the morning of the day. A stabilizer (200 mg), a freeze-drying auxiliary agent (200 mg), and the previously prepared fexuprazan hydrochloride (40 mg based fexuprazan weight) were dissolved in water for injection (4 mL), an appropriate amount of acid was added thereto. A composition whose pH was adjusted to 4.0 was administered intravenously, or an excipient (100 mg), a disintegrant (5 mg), and the previously prepared fexuprazan hydrochloride (40 mg based on fexuprazan weight) were mixed and compressed to prepare a tablet, which were administered orally. The hospital discharge was performed on the third day of medication. The second phase medication was performed on the morning of the 8th after hospital admission on the 6th day after the first phase medication. Hospital discharge was performed on the 10th day of medication. Subsequently, a close-out visit was performed between 15 and 18 days after medication (FIG. 6).\n(§1) Testing of the acidity (pH) in the gastrointestinal tract and gastric secretion promoting hormone gastrin were performed from 24 hours before medication to 24 hours after medication. Blood collection for pharmacokinetics and urine collection for pharmacokinetics were performed for 48 hours from the time of medication."}, "[2]": {"assay": "single intravenous dose-escalation clinical trial, pharmacokinetics", "format": "in vivo", "settings": "human, blood, healthy adults", "protocol": "(§2) In order to confirm the safety/PK/PD of the compound of the present invention during intravenous administration, the clinical trial was designed with random assignment, double-blind, placebo-controlled, single dose, and stepwise dose-escalation in healthy adults (Korean/Chinese) between the ages of 19 and 50.\nA stabilizer (200 mg), a freeze-drying auxiliary agent (200 mg), and the previously prepared fexuprazan hydrochloride (40 mg based on fexuprazan weight) were dissolved in water for injection (4 mL), and an appropriate amount of acid was added thereto to adjust the pH to 4.0. The prepared solution was put into a vial, dried by a freeze-drying method, and prepared as a freeze-drying agent.\n(§3) The freeze-dried composition prepared as above was used, but a total of 28 subjects of 4, 8, 8, and 8 subjects each were enrolled for four dose groups (10 mg, 20 mg, 40 mg, and 80 mg) based on fexuprazan weight, and each group was randomly assigned to test or control groups in the order that they passed the screening criteria at a ratio of 3:1. All test subjects completed safety, pharmacokinetic, and pharmacodynamic evaluations according to the planned clinical trial schedule.\nThe medication was performed in the morning, and the patient was discharged from the hospital on the third day of medication. Subsequently, a close-out visit was performed between the 8th and 11th day of medication.\nas §1\nAfter a single intravenous administration of four dose groups for fexuprazan, the dose proportionality of fexuprazan to the Cmax, AUClast, and AUCinf parameters was evaluated between doses of 10 mg and 80 mg. The log-transformed parameters and 95% confidence interval regression lines of each dose after a single administration are shown in Table 7 and FIG. 3, respectively. […] That is, it can be confirmed that the pK parameter of intravenous administration is proportional to the dose.\nTable 8 and FIG. 4 show the results of the Kruskal Wallis test for dose-normalized Cmax (Cmax/Dose), AUClast (AUClast/Dose), and AUCinf (AUCinf/Dose) between dose groups. […] That is, it can be seen that there is no significant difference between dose groups in the proportional relationship, and the appropriate dose for intravenous administration can be calculated indirectly through the appropriate dose for oral administration."}, "[3]": {"assay": "single intravenous dose-escalation clinical trial, safety", "format": "in vivo, human", "settings": "healthy adults, single intravenous 10, 20, 40, 80 mg", "protocol": "as §2, §3, §1"}, "[4]": {"test_system": "acidity (pH) in the gastrointestinal tract", "assay": "multiple intravenous administration clinical trial (7 days), acidity (pH) in the gastrointestinal tract", "format": "in vivo, human", "settings": "healthy adults; for Fraction time pH ≥ 4 over 24 hours post-dose (duration %) / Mean pH / Median pH: 7th day", "protocol": "Subsequent to Experimental Example 4, in order to confirm the change in PD value during multiple administration of the compound of the present invention, the clinical trial was designed to be randomized, double-blind, placebo-controlled in healthy adults between the ages of 19 and 50.\nA stabilizer (200 mg), a freeze-drying auxiliary agent (200 mg), and the previously prepared fexuprazan hydrochloride (40 mg based on fexuprazan weight) were dissolved in water for injection (4 mL), and the pH was adjusted to 4.0 by adding an appropriate amount of acid. The prepared solution was put into a vial and dried using a freeze-drying method to prepare a freeze-dried agent.\nThe freeze-dried composition prepared as above was used, but a total of 28 subject of […], 8, and 8 subjects each were enrolled for three dose groups (20 mg, 40 mg, and 80 mg) based on fexuprazan weight, and each group was randomly assigned to test or control groups in the order that they passed the screening criteria at a ratio of 3:1.\nDose groups 1 and 3 in Table 12 were administered once a day (every 24 hours) (FIG. 8), and dose group 2 was administered twice a day (every 12 hours) for 7 days (FIG. 9).\nThe acidity (pH) tests in the gastrointestinal tract were performed for 48 hours from the day before administration to 24 hours after the first administration. On the 7th day, it was administered for 24 hours after administration. The measured results are shown in Table 13 and FIGS. 10 to 14 below."}, "[5]": {"settings": "intravenous administration (40 mg)"}}, "note": "Values joined by “and” are separate entries in the source; they are usually repeats but may differ in a detail not shown here. Equal values may be shown once."}
{"smiles": "CNCc1cn(S(=O)(=O)c2cccc(F)c2)c(-c2ccc(F)cc2F)c1OC", "note": "[Fexuprazan, 1-(5-(2,4-difluorophenyl)-1-((3-fluorophenyl)sulfonyl)-4-methoxy-1H-pyrrol-3-yl)-N-methylmethanamine]", "values": [{"measurement": "AUC(0-inf)", "setting": "[1]; [5]", "result": "1150 ± 279", "unit": "ng·h/mL"}, {"measurement": "AUC(0-t)", "setting": "[1]; [5]", "result": 1110, "unit": "ng·h/mL"}, {"measurement": "Tmax", "setting": "[1]; [5]", "result": 0.25, "unit": "h"}, {"measurement": "half-life", "setting": "[1]; [5]", "result": "9.53 ± 2.42", "unit": "h"}, {"measurement": "Cmax", "setting": "[1]; [5]", "result": 277, "unit": "ng/mL"}, {"measurement": "AUC(0-inf)", "setting": "[1]; oral administration (40 mg)", "result": "556 ± 299", "unit": "ng·h/mL"}, {"measurement": "AUC(0-t)", "setting": "[1]; oral administration (40 mg)", "result": 536, "unit": "ng·h/mL"}, {"measurement": "Tmax", "setting": "[1]; oral administration (40 mg)", "result": 2.09, "unit": "h"}, {"measurement": "half-life", "setting": "[1]; oral administration (40 mg)", "result": "9.38 ± 1.6", "unit": "h"}, {"measurement": "Cmax", "setting": "[1]; oral administration (40 mg) tablet", "result": 49.9, "unit": "ng/mL"}, {"measurement": "AUC(0-inf)", "setting": "[2]; single intravenous 10 mg", "result": "240 ± 31.3", "unit": "ng·h/mL"}, {"measurement": "AUC(0-t)", "setting": "[2]; single intravenous 10 mg", "result": "235 ± 32.3", "unit": "ng·h/mL"}, {"measurement": "clearance", "setting": "[2]; single intravenous 10 mg", "result": 702, "unit": "mL/min"}, {"measurement": "half-life", "setting": "[2]; single intravenous 10 mg", "result": "9.04 ± 0.85", "unit": "h"}, {"measurement": "Cmax", "setting": "[2]; single intravenous 10 mg (N = 3)", "result": "93.7 ± 13.9", "unit": "ng/mL"}, {"measurement": "AUC(0-inf)", "setting": "[2]; single intravenous 20 mg", "result": "514 ± 113", "unit": "ng·h/mL"}, {"measurement": "AUC(0-t)", "setting": "[2]; single intravenous 20 mg", "result": "502 ± 111", "unit": "ng·h/mL"}, {"measurement": "clearance", "setting": "[2]; single intravenous 20 mg", "result": 677, "unit": "mL/min"}, {"measurement": "half-life", "setting": "[2]; single intravenous 20 mg", "result": "8.61 ± 1.89", "unit": "h"}, {"measurement": "Cmax", "setting": "[2]; single intravenous 20 mg (N = 6)", "result": "185 ± 32.3", "unit": "ng/mL"}, {"measurement": "AUC(0-inf)", "setting": "[2]; single intravenous 40 mg", "result": "1100 ± 238", "unit": "ng·h/mL"}, {"measurement": "AUC(0-t)", "setting": "[2]; single intravenous 40 mg", "result": "1070 ± 225", "unit": "ng·h/mL"}, {"measurement": "clearance", "setting": "[2]; single intravenous 40 mg", "result": 630, "unit": "mL/min"}, {"measurement": "half-life", "setting": "[2]; single intravenous 40 mg", "result": "8.84 ± 0.96", "unit": "h"}, {"measurement": "Cmax", "setting": "[2]; single intravenous 40 mg (N = 6)", "result": "321 ± 75.7", "unit": "ng/mL"}, {"measurement": "AUC(0-inf)", "setting": "[2]; single intravenous 80 mg", "result": "2380 ± 301", "unit": "ng·h/mL"}, {"measurement": "AUC(0-t)", "setting": "[2]; single intravenous 80 mg", "result": "2290 ± 271", "unit": "ng·h/mL"}, {"measurement": "clearance", "setting": "[2]; single intravenous 80 mg", "result": 567, "unit": "mL/min"}, {"measurement": "half-life", "setting": "[2]; single intravenous 80 mg", "result": "10.2 ± 1.84", "unit": "h"}, {"measurement": "Cmax", "setting": "[2]; single intravenous 80 mg (N = 6)", "result": "633 ± 165", "unit": "ng/mL"}, {"measurement": "serious abnormalities or side effects", "setting": "[3]", "result": "no serious abnormalities or side effects were observed"}, {"measurement": "Fraction time pH ≥ 4 over 24 hours post-dose (duration %)", "setting": "[4]; 20 mg IV q24h", "result": "55.68 (±14.85) % and 55.68 ± 14.85%"}, {"measurement": "Mean pH", "setting": "[4]; 20 mg IV q24h", "result": "4.28 ± 0.7"}, {"measurement": "Median pH", "setting": "[4]; 20 mg IV q24h", "result": "4.29 ± 1.32"}, {"measurement": "Fraction time pH ≥ 6 over 24 hours post-dose (duration %)", "setting": "[4]; 20 mg IV q24h, 7th day (n = 6)", "result": "25.29 ± 15.41", "unit": "%"}, {"measurement": "Fraction time pH ≥ 4 over 24 hours post-dose (duration %)", "setting": "[4]; 40 mg IV q12h", "result": "99.85 ± 0.31", "unit": "%"}, {"measurement": "Mean pH", "setting": "[4]; 40 mg IV q12h", "result": "6.34 ± 0.23"}, {"measurement": "Median pH", "setting": "[4]; 40 mg IV q12h", "result": "6.33 ± 0.22"}, {"measurement": "Fraction time pH ≥ 6 over 24 hours post-dose (duration %)", "setting": "[4]; 40 mg IV q12h, 7th day (n = 5)", "result": "74.77 (±13.39) % and 74.77 ± 13.39%"}, {"measurement": "Fraction time pH ≥ 4 over 24 hours post-dose (duration %)", "setting": "[4]; 80 mg IV q24h", "result": "94.78 ± 8.49", "unit": "%"}, {"measurement": "Mean pH", "setting": "[4]; 80 mg IV q24h", "result": "6.08 ± 0.5"}, {"measurement": "Median pH", "setting": "[4]; 80 mg IV q24h", "result": "6.28 ± 0.27"}, {"measurement": "Fraction time pH ≥ 6 over 24 hours post-dose (duration %)", "setting": "[4]; 80 mg IV q24h, 7th day (n = 6)", "result": "70.07% and 70.07 ± 18.09%"}]}
